In patent US5480645A, “Hydroxyamines N-acyl derivatives having scavenger activity and useful in acute and chronic pathologies associated with peroxidation and inflammation phenomena” (LifeGroup S.p.A., priority 1992, dated 1996):

Key:
[1] = tested on: rat liver microsomes (membrane phospholipid peroxidation); experiment: Antiperoxidative activity on rat liver microsomes, NADPH/Fe+2/ADP induced peroxidation (MDA formation); type: biochemical; settings: for peroxidation inhibition / MDA: NADPH/Fe+2/ATP, Table 1-A; for MDA: control 42.5
Procedure: Before the final resuspension mitochondria ape washed with 0.125M KCl containing 15 mM Hepes/10 mM tris at pH=7.4. Rat liver microsomes are prepared as described by Ernster and Nordenbrand (Ernster, Nordenbrand K. Methods Enzymol. 1967, 10:574-80). […]
b) 20 mM Hepes-Tris buffer pH=7.4, 0.5 mM cumene hydroperoxide in the presence or in the absence of the compounds to be tested. The trials after incubation are interrupted with 1 ml 35% TCA which 30 mg BHT and 1 ml 1% TBA (thiobarbituric acid) have been added to. Subsequently the incubation is carried out for 15' at 90° C. in order to allow the development of the coloured adduct.
(§1) A common oxidation product, malonyldialdehyde (MDA), to the two oxidant systems described in (a) and in (b), is measured.
The formed MDA is evaluated by spectrophotometry at 532 nm and calculated by using a molar extinction coefficient of 156.000 (Buege J. A. and Aust S. D., Methods Enzymol., 52, 302-310, 1978).
The tested compounds are solubilized in the culture medium up to the desired concentrations (see tables 1-3). […]
The antiperoxidase activity is measured as % of inhibition of malonyldialdehyde formation.

[2] = tested on: C6 glioma cells; experiment: Protection against 5 mM glutamate cytotoxicity in glioma C6 cultures; settings: Rattus norvegicus, C6 glioma, 24 h, read-out: % Cell survival
[3] = tested on: mast cells; experiment: In vivo antidegranulating activity in rat mast cells (substance P induced); design: species or system Sprague Dawley rats; settings: s.c. 20 mg/kg; substance P 10^-6 M in auricular pinna; substance P effect taken as 100% degranulation
Procedure: 1. In vivo antidegranulating activity in rat mast cells.
The pharmacological treatment is preceded (20 min. before) by the degranulating stimulus induced by P substance (10^-6 M) injected in the auricular pinna. After 20 minutes from the degranulating stimulus, the animals are sacrificed. Their tissues are then taken (auricular pavilion) for the morphological aspect analysis of the mast cells residing in the connective tissues after fixation and coloration with toluidine blue.
The inhibition level of the mast cells degranulation in the animal tissue treated with the tested compounds in comparison with the animals treated only with the degranulating agent is considered as the parameter of the biological activity.
*the inhibition percentage is calculated considering that the effect of
the substance P is maximum (100% of mast cells degranulation).

[4] = tested on: rat liver microsomes (membrane phospholipid peroxidation); experiment: Antiperoxidative activity on rat liver microsomes, cumene hydroperoxide induced peroxidation (MDA formation); type: biochemical; settings: for peroxidation inhibition / MDA: 0.5 mM cumene hydroperoxyde, Table 3; for MDA: control 12.8
Procedure: b) 20 mM Hepes-Tris buffer pH=7.4, 0.5 mM cumene hydroperoxide in the presence or in the absence of the compounds to be tested. […] Subsequently the incubation is carried out for 15' at 90° C. in order to allow the development of the coloured adduct.
as §1
The tested compounds are solubilized in the culture medium up to the desired concentrations (see tables 1-3).
As peroxidant agent 0.5 mM cumene hydroperoxyde is used. As oxidation index the formation of malonyldialdehyde (MDA) is measured (nmoles/mg protein).

[5] = tested on: granular cerebellar cells; experiment: Protection against 2 mM glutamate cytotoxicity in immature granular cerebellar cell cultures; settings: Mus musculus, 24 h, read-out: % Cellular survival
Procedure: The tested compounds are solubilized in DMSO at a concentration of from 1 to 100 μM.

[6] = tested on: rat cerebellar granular cells; experiment: Protection against glutamate neurotoxicity in rat cerebellar granular cell cultures; type: cell-based
Procedure: Primary cerebellar granular cell cultures are prepared from 8 days old Sprague-Dawly rats. Neurons are grown on 35 mm plates for 7-8 days. […] Glial cells proliferation is prevented by cytosine arabinose-furanoside.
Cells are washed in Locke solution free from Mg^2+ then replated in the conditionned culture medium.
The solution is diluted serially up to 10, 20 and 50 μM. The compounds at the desired concentrations are added to the cells at 37 ° C.; after 15' 50 μM glutamate free from Mg^2+ is added For 15 minutes at 22 ° C.
The cells are then washed 3 times with Locke solution, then added to the original culture medium and maintained at 37 ° C. in 5 % CO2 for 24 hours.
The cellular survival is measured by using a fluorescence microscope.

[7] = Solubility; type: physicochemical
[8] = in vitro, 10 to 50 μM dose/effect relationship for the test compound

solubility ([7]; organic solvent or mixture, in ethanol, DMSO, chloroform, read-out: solubility in org. solv.): > 10000 µg/mL
water solubility ([7]; water): slightly soluble
Structure (SMILES): Cc1c(C)c2c(c(C)c1O)CC(CC(=O)NCCO)O2 (stereo not drawn) [Example 1, 2-(2,3-dihydro-5-hydroxy-4,6,7-trimethylbenzofuran)-acetic acid 2 hydroxyethylamide]
peroxidation inhibition ([1]; 10 μM): 21%
MDA ([1]; 10 μM): 33.5 nmoles/mg prot.
peroxidation inhibition ([1]; 20 μM): 49%
MDA ([1]; 20 μM): 21.3 nmoles/mg prot.
effect compared with the corresponding acid (in words) ([1]; Tab. 1-A and 3 (NADPH/Fe+2/ADP and cumene peroxide)): consistently higher than that of the comparison product namely the corresponding acid
inhibition of the peroxidation induced by NADPH/Fe+2/ADP (in words) [1, 8]: able to inhibit the peroxidation induced by NADPH/Fe^+2 /ADP (a)
viability at 1 µM [2]: 13%
viability at 3 µM [2]: 88%
viability at 10 µM [2]: 89%
inhibition % (mast cells degranulation induced by substance P) [3]: 19%
peroxidation inhibition ([4]; 20 μM): 47%
MDA ([4]; 20 μM): 6.84 nmoles/mg prot.
peroxidation inhibition ([4]; 50 μM): 80%
MDA ([4]; 50 μM): 2.5 nmoles/mg prot.
inhibition of the peroxidation induced by cumene peroxide (in words) [4, 8]: able to inhibit the peroxidation induced by NADPH/Fe^+2 /ADP (a) and by cumene peroxide (b)
viability at 1 µM [5]: 31%
viability at 3 µM [5]: 40%
viability at 10 µM [5]: 94%
viability at 10 µM ([6]; Rattus norvegicus, 24 h, 10 μM, against 50 μM glutamate, Table 4, control 100, read-out: cell survival): 33%
viability at 20 µM ([6]; Rattus norvegicus, 24 h, 20 μM, against 50 μM glutamate, Table 4, control 100, read-out: cell survival): 50%
viability at 50 µM ([6]; Rattus norvegicus, 24 h, 50 μM, against 50 μM glutamate, Table 4, control 100, read-out: cell survival): 85%
protection against glutamate exogenous neurotoxicity (in words) ([6]; dose-effect relationship): able to protect against the glutamate exogenous neurotoxicity
